Holding throughout (assay type): cell-based, human
Data set [1] has as its system cisplatin-resistant R-ME-180 clone. The data set is described as follows: Cytotoxicity assay (MTT, 72 h). The method, then: (§1) R-ME-180 and A2780cis cells were maintained in 1 μM cisplatin. Adipose-derived stromal cells were maintained in MSCGM BulletKit medium (Lonza). All cell lines were cultured at 37° C. in a 5% CO2, fully humidified atmosphere
(§2) Cell lines were seeded in 96-well flat-bottomed microplates in 100 μL culture medium at the following densities: DU145, PC3 and MCF-7 cells (2.5×10^3 cells/well); A2780, A2780cis, ME-180, R-ME-180 and A549 cells (4.0×10^3 cells/well); and MG-63 cells (2.0×10^3 cells/well). Cells were allowed to adhere for 24 h. Then the medium was replaced with fresh medium alone or with one of the gold(III) complexes at increasing concentrations from 0 to 100 μM. The reference drugs cisplatin (0-100 μM) and doxorubicin (0-1 μM) were included as positive controls for growth inhibition. After 72 h, cell viability was assayed using the MTT assay.
(§3) See Chou T. C.; Talalay P. Quantitative analysis of dose-effect relationships: the combined effects of multiple drugs or enzyme inhibitors. […] 22, 27-55, incorporated herein by reference in its entirety. IC50 values were reported as mean (SD). For drug-resistance cell lines, fold resistance (FR) was calculated as the ratio of the IC50 of the resistant cell line to the IC50 of the parental cell line.

Data set [2] has as its system MCF-7 breast cancer cell line. Nature of the data set: Cytotoxicity assay (MTT, 72 h). The following applies: MCF-7, MTT after 72 h, mean (SD); read-out: Half-maximal inhibitory concentration (IC50). On the procedure:
as §1, §2, §3

Data set [3] relates to MG-63 osteosarcoma cell line. Nature of the data set: Cytotoxicity assay (MTT, 72 h). Particulars: MG63, MTT after 72 h, mean (SD); read-out: Half-maximal inhibitory concentration (IC50). The method, then: as §1, §2, §3
Data set [4] has as its system PC3 prostate cancer cell line. Nature of the data set: Cytotoxicity assay (MTT, 72 h). Particulars: PC3, MTT after 72 h, mean (SD); read-out: Half-maximal inhibitory concentration (IC50). The method, then: as §1, §2, §3
The test system of data set [5] is A549 lung cancer cell line. The data set is described as follows: Cytotoxicity assay (MTT, 72 h). The following applies: A549, MTT after 72 h, mean (SD); read-out: Half-maximal inhibitory concentration (IC50). On the procedure: as §1, §2, §3
The subject of data set [6] is DU145 prostate cancer cell line. Nature of the data set: Cytotoxicity assay (MTT, 72 h). Particulars: DU145, MTT after 72 h, mean (SD); read-out: Half-maximal inhibitory concentration (IC50). On the procedure:
as §1, §2, §3

In data set [7] the test system is cisplatin- and doxorubicin-resistant A2780cis clone. The data set is described as follows: Cytotoxicity assay (MTT, 72 h). The method, then:
as §1, §2, §3

A further data set deals with PC3 cells. Nature of the data set: Cellular uptake of gold(III) complexes (ICP-MS). The following applies: 3 μM, 2 h, ICP mass spectrometry. The method, then: After treatment, monolayers were washed with ice-cold PBS four times, and the cells were detached with trypsin-EDTA and washed three times with ice-cold PBS by centrifugation. The cell pellet was solubilized in 700 μL of HNO3—HCl solution (1:3 molar ratio) for 2 h at 100° C., and then diluted with 4 mL water. Samples were analyzed for gold on an Agilent 7500 inductively coupled plasma mass spectrometer (ICP-MS). Results were expressed as ng gold/10^6 cells. The experiment was performed a total of two times and the results were expressed as mean and SD.

Consider `CC[N+](CC)=C1[S][Au-]2([S]1)[n+]1ccc[n+]3c1-c1[n+]2ccc[n+]1[Au-]31[S]C(=[N+](CC)CC)[S]1.[Cl-].[Cl-].[Cl-].[Cl-]` [C7, [Au2(BPM)(DEDTC)2]Cl4], for which the “FR (R-ME-180/ME-180), fold resistance” value in data set [1] (IC50 R-ME-180 / IC50 ME-180) stood at 0.9. The IC50 in data set [1] (R-ME-180, MTT after 72 h, mean (SD)) was found to be 4100 nM; in data set [2] it was 600 nM; in data set [3], 700 nM; in data set [4] it was 800 nM; in data set [5] it was 1400 nM; in data set [6], 800 nM. For the same molecule, in data set [7] (A2780cis, MTT after 72 h, mean (SD)), the IC50 was 300 nM. In addition, the “FR (A2780cis/A2780), fold resistance” value in data set [7] (IC50 A2780cis / IC50 A2780) amounted to 0.9. In the data set with PC3 cells, the “amount of internalized gold (cellular uptake)” value is on record as “greater uptake”.

Values taken from US12103939B2, “Solid pharmaceutical gold-based composition” (KING FAHD UNIVERSITY OF PETROLEUM AND MINERALS, priority 2019, dated 2024).
